Reference: PMC3469822, “ATP-Driven Remodeling of the Linker Domain in the Dynein Motor” (Structure(London, England:1993), 2012)

How the values were obtained:
[1] = biological target: T1, cytoplasmic dynein motor domain (380 kDa) (Dictyostelium discoideum, UniProt P34036); assay: cryo-EM reconstruction of head, […] Å; assay type: binding; details: 1 mM ADP, 4 mM MgSO4, pH 7.0; ligand itself not resolved
T1 construct: gene dhcA; tail-less motor domain V1388-I4730, N-terminal His6 and FLAG tags, 380 kDa
T1 sequence (P34036 1388-4730): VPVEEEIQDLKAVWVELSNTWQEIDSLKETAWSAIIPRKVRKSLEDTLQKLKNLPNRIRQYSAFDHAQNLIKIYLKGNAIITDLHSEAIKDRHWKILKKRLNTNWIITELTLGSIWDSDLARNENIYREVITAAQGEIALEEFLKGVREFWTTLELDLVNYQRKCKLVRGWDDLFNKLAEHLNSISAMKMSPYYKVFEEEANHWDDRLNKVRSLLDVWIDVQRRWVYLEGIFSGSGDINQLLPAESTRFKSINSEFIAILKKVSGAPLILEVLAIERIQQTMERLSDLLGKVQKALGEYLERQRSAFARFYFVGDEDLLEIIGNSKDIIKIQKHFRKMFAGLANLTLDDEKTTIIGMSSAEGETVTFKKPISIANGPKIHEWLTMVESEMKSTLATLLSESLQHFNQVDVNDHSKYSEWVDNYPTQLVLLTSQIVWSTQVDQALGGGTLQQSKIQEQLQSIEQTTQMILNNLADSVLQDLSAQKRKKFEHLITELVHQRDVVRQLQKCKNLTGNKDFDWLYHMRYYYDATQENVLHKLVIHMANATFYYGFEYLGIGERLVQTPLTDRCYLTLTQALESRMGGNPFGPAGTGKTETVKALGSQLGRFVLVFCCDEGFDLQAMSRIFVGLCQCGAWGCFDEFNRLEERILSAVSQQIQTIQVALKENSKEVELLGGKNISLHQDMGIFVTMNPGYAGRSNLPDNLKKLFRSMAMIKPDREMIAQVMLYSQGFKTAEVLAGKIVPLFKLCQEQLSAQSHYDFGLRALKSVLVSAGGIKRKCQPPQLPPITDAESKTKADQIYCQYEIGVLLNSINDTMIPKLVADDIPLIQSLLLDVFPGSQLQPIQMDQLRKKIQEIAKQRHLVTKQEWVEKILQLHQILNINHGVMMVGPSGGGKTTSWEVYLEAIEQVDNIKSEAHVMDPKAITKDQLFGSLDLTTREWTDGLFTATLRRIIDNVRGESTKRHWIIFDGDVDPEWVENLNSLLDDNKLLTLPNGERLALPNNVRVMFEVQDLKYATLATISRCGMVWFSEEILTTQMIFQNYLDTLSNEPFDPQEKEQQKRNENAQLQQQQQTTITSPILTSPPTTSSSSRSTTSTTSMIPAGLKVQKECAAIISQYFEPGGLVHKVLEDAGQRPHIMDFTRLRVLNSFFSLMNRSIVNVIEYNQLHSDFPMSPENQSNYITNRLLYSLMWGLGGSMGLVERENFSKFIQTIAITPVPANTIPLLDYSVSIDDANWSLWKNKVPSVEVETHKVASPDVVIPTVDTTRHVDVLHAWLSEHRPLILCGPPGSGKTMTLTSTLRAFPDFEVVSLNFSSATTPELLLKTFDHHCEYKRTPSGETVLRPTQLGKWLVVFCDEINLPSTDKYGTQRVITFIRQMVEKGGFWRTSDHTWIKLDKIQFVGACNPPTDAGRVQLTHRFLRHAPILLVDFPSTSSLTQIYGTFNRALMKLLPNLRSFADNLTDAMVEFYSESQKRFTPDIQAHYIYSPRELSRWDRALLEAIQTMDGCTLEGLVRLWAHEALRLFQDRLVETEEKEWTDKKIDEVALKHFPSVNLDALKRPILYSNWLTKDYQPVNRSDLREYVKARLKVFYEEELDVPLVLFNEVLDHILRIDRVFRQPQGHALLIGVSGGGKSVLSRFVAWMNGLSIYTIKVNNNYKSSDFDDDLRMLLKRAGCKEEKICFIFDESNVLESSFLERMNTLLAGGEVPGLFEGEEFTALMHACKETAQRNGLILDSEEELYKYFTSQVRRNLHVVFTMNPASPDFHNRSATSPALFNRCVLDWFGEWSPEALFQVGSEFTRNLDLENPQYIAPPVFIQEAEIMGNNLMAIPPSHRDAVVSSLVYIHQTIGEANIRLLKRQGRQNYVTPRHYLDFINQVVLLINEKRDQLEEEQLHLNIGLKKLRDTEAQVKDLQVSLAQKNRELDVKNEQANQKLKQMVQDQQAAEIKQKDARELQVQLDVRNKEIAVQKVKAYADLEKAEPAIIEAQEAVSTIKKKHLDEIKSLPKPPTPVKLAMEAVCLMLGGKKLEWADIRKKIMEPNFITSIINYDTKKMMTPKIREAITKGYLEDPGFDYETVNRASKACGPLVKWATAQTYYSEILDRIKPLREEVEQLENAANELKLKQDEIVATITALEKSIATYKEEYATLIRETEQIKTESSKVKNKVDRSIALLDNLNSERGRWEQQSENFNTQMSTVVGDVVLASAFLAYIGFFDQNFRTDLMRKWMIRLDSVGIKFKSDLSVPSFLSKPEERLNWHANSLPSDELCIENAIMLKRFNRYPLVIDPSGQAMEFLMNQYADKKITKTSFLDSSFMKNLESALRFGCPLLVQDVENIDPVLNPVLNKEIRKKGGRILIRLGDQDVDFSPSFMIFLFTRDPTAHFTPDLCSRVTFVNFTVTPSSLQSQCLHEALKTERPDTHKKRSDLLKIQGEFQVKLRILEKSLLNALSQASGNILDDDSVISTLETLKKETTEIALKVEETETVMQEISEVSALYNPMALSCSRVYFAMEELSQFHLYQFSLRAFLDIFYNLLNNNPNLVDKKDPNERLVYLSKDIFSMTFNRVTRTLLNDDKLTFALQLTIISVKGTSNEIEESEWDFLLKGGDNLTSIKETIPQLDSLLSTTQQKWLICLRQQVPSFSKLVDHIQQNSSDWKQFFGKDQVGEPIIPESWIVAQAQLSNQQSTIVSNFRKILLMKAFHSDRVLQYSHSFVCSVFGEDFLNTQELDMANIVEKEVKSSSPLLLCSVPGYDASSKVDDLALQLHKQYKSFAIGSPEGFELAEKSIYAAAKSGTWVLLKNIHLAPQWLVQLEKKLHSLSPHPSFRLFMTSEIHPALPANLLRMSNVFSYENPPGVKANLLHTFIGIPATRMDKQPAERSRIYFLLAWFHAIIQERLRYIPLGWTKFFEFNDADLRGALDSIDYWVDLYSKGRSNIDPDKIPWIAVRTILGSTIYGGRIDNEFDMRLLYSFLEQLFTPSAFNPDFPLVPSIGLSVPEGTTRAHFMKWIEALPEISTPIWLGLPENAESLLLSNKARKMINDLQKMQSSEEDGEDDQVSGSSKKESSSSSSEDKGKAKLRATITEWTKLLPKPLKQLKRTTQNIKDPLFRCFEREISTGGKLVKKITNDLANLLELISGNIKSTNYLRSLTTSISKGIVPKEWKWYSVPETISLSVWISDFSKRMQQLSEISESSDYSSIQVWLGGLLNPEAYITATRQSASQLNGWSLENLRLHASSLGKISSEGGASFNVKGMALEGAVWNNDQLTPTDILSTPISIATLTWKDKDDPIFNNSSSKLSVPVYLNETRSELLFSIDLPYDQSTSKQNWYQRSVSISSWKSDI

[2] = biological target: T2, cytoplasmic dynein motor domain (380 kDa) (Dictyostelium discoideum, UniProt P34036, E2027Q); assay: cryo-EM reconstruction of head, […] Å; assay type: binding; details: 1 mM ATP, 4 mM MgSO4, pH 7.0; AAA1 Walker B mutant that binds but does not hydrolyse ATP; ligand itself not resolved
T2 construct: gene dhcA; tail-less motor domain V1388-I4730, N-terminal His6 and FLAG tags, 380 kDa
T2 sequence (P34036 1388-4730 E2027Q): as the sequence (P34036 1388-4730) above, with E640Q counted along it

Row | Structure (SMILES) | cryo-EM reconstruction of head, 23 Å [1] | cryo-EM reconstruction of head, 25 Å [2]
1 | Nc1ncnc2c1ncn2[C@@H]1O[C@H](COP(=O)(O)OP(=O)(O)O)[C@@H](O)[C@H]1O [ADP] | Cryo-EM reconstruction of the head domain of cytoplasmic dynein in the presence of ADP | 
2 | Nc1ncnc2c1ncn2[C@@H]1O[C@H](COP(=O)(O)OP(=O)(O)OP(=O)(O)O)[C@@H](O)[C@H]1O [ATP] |  | cytoplasmic dynein head, bearing a E2027Q substitution, in the ATP state
